Assays:
[1] = target: Calcitonin gene-related peptide type 1 receptor (Homo sapiens, UniProt Q16602); experiment: Binding affinity to human CGRP receptor
[2] = Oxidative stability assessed as formation of N-((R)-1-(1,4'-bipiperidin-1'-yl)-3-(7-methyl-1H-indazol-5-yl)-1-oxopropan-2-yl)-4-(8-fluoro-4-hydroxy-2-oxo-1,2-dihydroquinazolin-3(4H)-yl)piperidine-1-carboxamide in 0.05 M buffer at pH 5 after 12 weeks; assay type: physicochemical; details: pH 5, 2016 h
[3] = Hydrolytic stability assessed as compound remaining in water at 0.15 mg/mL at pH 4 after 4 weeks; assay type: physicochemical; details: read-out: Activity
[4] = Hydrolytic stability assessed as formation of (R)-2-(4-(8-fluoro-2-oxo-1,2-dihydroquinazolin-3(4H)-yl)piperidine-1-carboxamido)-3-(7-methyl-1H-indazol-5-yl)propanoic acid in 0.05 M buffer at pH 5 after 12 weeks; assay type: physicochemical; set-up: scale not given: the % may be the effect or the level left; details: pH 5, 2016 h
[5] = Oxidative stability assessed as compound remaining in water at 0.15 mg/mL at pH 4 after 48 hrs in presence of free radical generator AAPH; assay type: physicochemical; details: read-out: Activity
[6] = Hydrolytic stability assessed as formation of 8-fluoro-3-(piperidin-4-yl)-3,4-dihydroquinazolin-2(1H)-one in 0.05 M buffer at pH 5 after 12 weeks; assay type: physicochemical; set-up: scale not given: the % may be the effect or the level left; details: pH 5, 2016 h
[7] = Solubility at pH 7; assay type: physicochemical; details: buffer

Sequence of Calcitonin gene-related peptide type 1 receptor (Q16602 whole entry): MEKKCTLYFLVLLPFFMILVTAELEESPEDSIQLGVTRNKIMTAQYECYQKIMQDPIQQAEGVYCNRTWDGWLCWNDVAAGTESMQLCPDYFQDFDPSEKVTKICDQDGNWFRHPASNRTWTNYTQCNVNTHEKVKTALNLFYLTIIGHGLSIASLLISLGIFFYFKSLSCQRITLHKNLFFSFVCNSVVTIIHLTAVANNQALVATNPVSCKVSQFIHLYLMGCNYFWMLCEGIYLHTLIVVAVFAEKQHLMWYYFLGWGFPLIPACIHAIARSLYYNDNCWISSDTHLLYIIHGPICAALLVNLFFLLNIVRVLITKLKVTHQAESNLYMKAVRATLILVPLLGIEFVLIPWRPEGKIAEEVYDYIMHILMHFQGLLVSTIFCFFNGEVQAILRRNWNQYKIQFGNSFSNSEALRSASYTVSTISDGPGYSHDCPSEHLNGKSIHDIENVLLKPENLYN

Row | IC50 [1] | Compound | also measured
1 | 0.18 nM | Cc1cc(C[C@@H](OC(=O)N2CCC(c3cc4ccccc4cn3)CC2)C(=O)N2CCC(N3CCCCC3)CC2)cc2cn[nH]c12 | –
2 | 0.068 nM | Cc1cc(C[C@@H](OC(=O)N2CCC(n3cc(-c4ccccc4)[nH]c3=O)CC2)C(=O)N2CCC(N3CCCCC3)CC2)cc2cn[nH]c12 | –
3 | 0.13 nM | Cc1cc(C[C@@H](OC(=O)N2CCC(c3cc4ccccc4[nH]c3=O)CC2)C(=O)N2CCN(c3ccc(F)cc3)CC2)cc2cn[nH]c12 | –
4 | 0.011 nM | Cc1cc(C[C@@H](OC(=O)N2CCC(N3Cc4cccc(F)c4NC3=O)CC2)C(=O)N2CCC(N3CCCCC3)CC2)cc2cn[nH]c12 | –

Further lines, the compound ahead of its results:

Row | Compound | IC50 [1] | also measured
5 | Cc1cc(C[C@@H](OC(=O)N2CCC(c3cc4ccccc4[nH]c3=O)CC2)C(=O)N2CCN(C3CCCCC3)CC2)cc2cn[nH]c12 | 0.02 nM | –
6 | Cc1cc(C[C@@H](NC(=O)N2CCC(N3Cc4cccc(F)c4NC3=O)CC2)C(=O)N2CCC(N3CCCCC3)CC2)cc2cn[nH]c12 | – | Activity [2]: 2%; remaining at 672 h, 0.15 mg/mL [3]: 56%; Activity [4]: 0.2%; remaining at 48 h, 0.15 mg/mL [5]: 72%; Activity [6]: 0.4%
7 | Cc1cc(C[C@@H](OC(=O)N2CCC(N3Cc4ccc(F)cc4NC3=O)CC2)C(=O)N2CCC(N3CCCCC3)CC2)cc2cn[nH]c12 | 0.022 nM | –
8 | Cc1cc(C[C@@H](OC(=O)N2CCC(c3cc4cccc(F)c4[nH]c3=O)CC2)C(=O)N2CCC(N3CCCCC3)CC2)cc2cn[nH]c12 | 0.057 nM | –
9 | Cc1cc(C[C@@H](OC(=O)N2CCC(N3Cc4ccccc4NC3=O)CC2)C(=O)N2CCC(N3CCCCC3)CC2)cc2cn[nH]c12 | 0.01 nM | –
10 | Cc1cc(C[C@@H](OC(=O)N2CCC(c3cc4ccccc4[nH]c3=O)CC2)C(=O)N2CCC(N3CC=CCC3)CC2)cc2cn[nH]c12 | 0.053 nM | –
11 | Cc1cc(C[C@@H](OC(=O)N2CCC(c3cc4ccccc4[nH]c3=O)CC2)C(=O)N2CCCCC2)cc2cn[nH]c12 | 1.8 nM | –
12 | Cc1cc(C[C@@H](OC(=O)N2CCC(c3cc4ccccc4[nH]c3=O)CC2)C(=O)N2CCC3(CCN(C)CC3)CC2)cc2cn[nH]c12 | 0.044 nM | –
13 | Cc1cc(C[C@@H](OC(=O)N2CCC(c3cc4ccccc4[nH]c3=O)CC2)C(=O)N2CCC(N3CCCCC3)CC2)cc2cn[nH]c12 | 0.017 nM | remaining at 672 h, 0.15 mg/mL [3]: 99%; remaining at 48 h, 0.15 mg/mL [5]: 97%; solubility [7]: > 50 mg/mL
14 | Cc1cc(C[C@@H](OC(=O)N2CCC(c3cc4ccccc4[nH]c3=O)CC2)C(=O)N2CCN(c3ccncc3)CC2)cc2cn[nH]c12 | 0.063 nM | –

Reference: ChEMBL document CHEMBL1136981, “Carbamates as potent calcitonin gene-related peptide antagonists with improved solution stability” (Bioorg Med Chem Lett, 2009)
